According to US7510729B2, “Combination of polyvinyl acetate with water-insoluble, acid-insoluble, or alkali-insoluble polymers used for the production of film coatings with highly controlled release and high stability” (BASF Aktiengesellschaft, priority 2002, dated 2009):

Test: pH-dependent solubility of the active ingredient
Conditions: acidic range

## CC(=O)Oc1ccccc1C(=O)O [Acetylsalicylic acid, acetylsalicylic acid]
  Solubility: 0.45%
